According to PubChem BioAssay (NCI):
“And” between values parts separate entries of the source, which are not always exact repeats. Equal entries are not always repeated.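 The compound was tested at five concentrations on cells cultured in 96-well plates, with a 48-hour exposure period. The concentration for 50% growth inhibition is given as GI50. TGI marks complete inhibition of growth.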

Tests used:
Test in all cases: NCI tumour cell line growth inhibition, 48 h
HS 578T breast = system: HS 578T breast
TK-10 renal = system: TK-10 renal
MDA-MB-435 = system: MDA-MB-435
IGROV1 ovarian = system: IGROV1 ovarian
SK-MEL-5 melanoma = system: SK-MEL-5 melanoma
OVCAR-4 ovarian = system: OVCAR-4 ovarian
NCI-H226 lung = system: NCI-H226 lung
786-0 renal = system: 786-0 renal
NCI-H522 lung = system: NCI-H522 lung
NCI-H23 lung = system: NCI-H23 lung
SK-MEL-2 melanoma = system: SK-MEL-2 melanoma
SNB-19 CNS = system: SNB-19 CNS
MALME-3M melanoma = system: MALME-3M melanoma
A549 NSCLC = system: A549 NSCLC
HCT-15 colon = system: HCT-15 colon
COLO 205 colon = system: COLO 205 colon
SW-620 colon = system: SW-620 colon
MCF7 breast = system: MCF7 breast
SF-295 CNS = system: SF-295 CNS
UACC-62 melanoma = system: UACC-62 melanoma
K-562 leukemia = system: K-562 leukemia
UO-31 renal = system: UO-31 renal
T-47D breast = system: T-47D breast
HOP-62 NSCLC = system: HOP-62 NSCLC
CAKI-1 renal = system: CAKI-1 renal
SN12C renal = system: SN12C renal
MDA-MB-231 breast = system: MDA-MB-231 breast
RXF 393 renal = system: RXF 393 renal
HL-60(TB) leukemia = system: HL-60(TB) leukemia

For O=C(Nc1cc(C(F)(F)F)cc(C(F)(F)F)c1)c1cc(Cl)ccc1O, which GI50 (HS 578T breast) is on record?
The GI50 was 222 nM and 212 nM.

What about the TGI (HS 578T breast) of the same compound?
The TGI was 807 nM and 821 nM.

What about the GI50 (TK-10 renal) of the same compound?
The GI50 was 442 nM and 387 nM.

And the TGI (TK-10 renal)?
Its TGI is > 10000 nM and 11100 nM.

What about the GI50 (MDA-MB-435) of the same compound?
The GI50 was 288 nM and 284 nM.

And the TGI (MDA-MB-435)?
Its TGI is 1310 nM and 1610 nM.

What about the GI50 (IGROV1 ovarian) of the same compound?
The GI50 was 271 nM and 357 nM.

And the TGI (IGROV1 ovarian)?
Its TGI is > 2340 nM and 11900 nM.

And the GI50 (SK-MEL-5 melanoma)?
Its GI50 is 63.2 nM and 94 nM.

And the TGI (SK-MEL-5 melanoma)?
The TGI was 206 nM and 257 nM.

What about the GI50 (OVCAR-4 ovarian) of the same compound?
The GI50 was 294 nM and 288 nM.

What about the TGI (OVCAR-4 ovarian) of the same compound?
The TGI was > 10000 nM and 13400 nM.

What about the GI50 (NCI-H226 lung) of the same compound?
The GI50 was 262 nM and 317 nM.

And the TGI (NCI-H226 lung)?
The TGI was 992 nM and 1590 nM.

What about the GI50 (786-0 renal) of the same compound?
The GI50 was 269 nM and 293 nM.

And the TGI (786-0 renal)?
The TGI was 881 nM and 1150 nM.

What about the GI50 (NCI-H522 lung) of the same compound?
Its GI50 is 186 nM and 214 nM.

What about the TGI (NCI-H522 lung) of the same compound?
Its TGI is 818 nM and 1900 nM.

What about the GI50 (NCI-H23 lung) of the same compound?
Its GI50 is 218 nM and 263 nM.

What about the TGI (NCI-H23 lung) of the same compound?
Its TGI is 754 nM and 1340 nM.

What about the GI50 (SK-MEL-2 melanoma) of the same compound?
Its GI50 is 209 nM and 206 nM.

And the TGI (SK-MEL-2 melanoma)?
Its TGI is 589 nM and 981 nM.

What about the GI50 (SNB-19 CNS) of the same compound?
Its GI50 is 291 nM and 233 nM.

And the TGI (SNB-19 CNS)?
Its TGI is > 10000 nM and 12000 nM.

What about the GI50 (MALME-3M melanoma) of the same compound?
Its GI50 is 225 nM and 200 nM.

And the TGI (MALME-3M melanoma)?
The TGI was 1160 nM and 668 nM.

What about the GI50 (A549 NSCLC) of the same compound?
The GI50 was 293 nM and 319 nM.

What about the TGI (A549 NSCLC) of the same compound?
The TGI was > 4320 nM and 12800 nM.

And the GI50 (HCT-15 colon)?
Its GI50 is 271 nM and 276 nM.

What about the TGI (HCT-15 colon) of the same compound?
The TGI was 1620 nM and 1490 nM.

And the GI50 (COLO 205 colon)?
Its GI50 is 696 nM and 1340 nM.

What about the TGI (COLO 205 colon) of the same compound?
The TGI was 2340 nM and 3220 nM.

And the GI50 (SW-620 colon)?
The GI50 was 316 nM and 312 nM.

And the TGI (SW-620 colon)?
Its TGI is 3260 nM and 10400 nM.

And the GI50 (MCF7 breast)?
Its GI50 is 302 nM and 269 nM.

And the TGI (MCF7 breast)?
The TGI was > 10000 nM and 5260 nM.

What about the GI50 (SF-295 CNS) of the same compound?
Its GI50 is 179 nM and 173 nM.

And the TGI (SF-295 CNS)?
Its TGI is 479 nM and 402 nM.

What about the GI50 (UACC-62 melanoma) of the same compound?
The GI50 was 129 nM and 100 nM.

What about the TGI (UACC-62 melanoma) of the same compound?
Its TGI is 668 nM and 595 nM.

What about the GI50 (K-562 leukemia) of the same compound?
Its GI50 is 189 nM and 161 nM.

What about the TGI (K-562 leukemia) of the same compound?
The TGI was over 61300 nM.

And the GI50 (UO-31 renal)?
Its GI50 is 246 nM and 224 nM.

What about the TGI (UO-31 renal) of the same compound?
Its TGI is 856 nM and 811 nM.

And the GI50 (T-47D breast)?
Its GI50 is 150 nM and 194 nM.

And the TGI (T-47D breast)?
The TGI was 604 nM and 1240 nM.

What about the GI50 (HOP-62 NSCLC) of the same compound?
Its GI50 is 260 nM and 355 nM.

What about the TGI (HOP-62 NSCLC) of the same compound?
The TGI was 1200 nM and 4380 nM.

What about the GI50 (CAKI-1 renal) of the same compound?
The GI50 was 212 nM and 180 nM.

And the TGI (CAKI-1 renal)?
The TGI was 644 nM and 677 nM.

And the GI50 (SN12C renal)?
The GI50 was 224 nM and 202 nM.

And the TGI (SN12C renal)?
The TGI was > 2730 nM and 1540 nM.

What about the GI50 (MDA-MB-231 breast) of the same compound?
The GI50 was 241 nM and 225 nM.

What about the TGI (MDA-MB-231 breast) of the same compound?
The TGI was > 2170 nM and 2630 nM.

And the GI50 (RXF 393 renal)?
The GI50 was 245 nM and 190 nM.

What about the TGI (RXF 393 renal) of the same compound?
The TGI was 1160 nM and 673 nM.

What about the GI50 (HL-60(TB) leukemia) of the same compound?
Its GI50 is 201 nM and 239 nM.

And the TGI (HL-60(TB) leukemia)?
The TGI was 1690 nM and 641 nM.
